Laboratory results from patent US8080664B2, “Use of compounds as inhibitors for Helicobacter flavodoxin” (Universidad De Zaragoza, priority 2007, dated 2011).
pKd: −log10 of the molar value.

How the values were obtained:
flavodoxin of H. pylori = molecular target: T1, flavodoxin of H. pylori (Helicobacter pylori, UniProt O25776); test: Isothermal titration calorimetry (ITC) binding to flavodoxin; conditions: 50 mM EPPS buffer, pH 9, 7% DMSO; protein around 20 μM; read-out: affinity for flavodoxin (ITC)
T1 construct: made in house; host or cells: E. coli BL21 (pET28a)
Method: The specific binding of the inhibitors of the disclosed compounds to flavodoxin of H. pylori was confirmed by isothermal titration calorimetry (ITC). This technique not only measures the affinity of each compound for the target protein, but also determines the contribution of the enthalpic and entropic components of binding.
The binding experiments were carried out in 50 mM EPPS buffer, pH 9 with 7% DMSO, with the inhibitor in the injection syringe at a concentration of 300-500 μM, and the protein around 20 μM in the measurement cell.

H. pylori flavodoxin = molecular target: T2, H. pylori flavodoxin (Helicobacter pylori, UniProt O25776); test: Inhibition assay of sequential electron transfer pyruvate/PFOR/flavodoxin/FqrB/NADP+ (NADPH formation at 340 nm); type: biochemical; conditions: 50 μM compound; anaerobic; 10 μM Fld; absorbance at 340 nm
T2 construct: made in house; host or cells: E. coli BL21 (flavodoxin, pET28a); E. coli JVQ2 (PFOR); E. coli BL21(DE3) (FqrB)
T2 sequence (O25776 1-164): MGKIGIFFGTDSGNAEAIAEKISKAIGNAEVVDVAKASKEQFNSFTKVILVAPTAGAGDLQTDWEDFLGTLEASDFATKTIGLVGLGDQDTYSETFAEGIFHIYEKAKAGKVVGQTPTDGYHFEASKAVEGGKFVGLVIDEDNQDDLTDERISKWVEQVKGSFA
From the text: Flavodoxin is an essential protein for Helicobacter pylori survival as it participates in a fundamental reaction for obtaining energy from the oxidative decarboxylation of pyruvate. In this reaction, flavodoxin transfers electrons between the PFOR enzyme and the FqrB enzyme, which releases them to NADP^+.
The sequential reaction of electron transfer between pyruvate, PFOR, flavodoxin, FqrB and NADP^+ (activity assay) was followed spectroscopically by the appearance of the signal at 340 nm with the formation of NADPH. The reaction mixture contained 100 mM potassium phosphate pH 7, 10 mM pyruvate, 0.18 mM CoA, 1 mM MgCl, 0.3 mM NADP^+, 0.09 mg/ml PFOR, 10 μM Fld and 0.15 μM FqrB. The mixture, except CoA, was placed in a cuvette specially designed for anaerobic conditions. Oxygen was removed by means of 5 minute cycles with alternate flows of vacuum and argon. The reaction was started by the addition of 0.18 mM coenzyme A (CoA) that was held in a compartment inside the same cuvette. The reaction finished 15 minutes after adding the CoA reagent.
The inhibition assays were carried out in the same conditions as the activity assays previously described, adding an additional 50 μM of the disclosed compound of the general formula shown in (II) to the reaction cuvette.

O=[N+]([O-])C1=Cc2cc(Cl)cc(Cl)c2OC1c1ccc(F)cc1 (centres unmarked) [formula (II)]
pKd (flavodoxin of H. pylori): 5.80 | inhibition of NADPH formation (pyruvate oxidative decarboxylation reaction) (H. pylori flavodoxin): almost total
